Test results reported in PMC11905058, “Novel Leech Antimicrobial Peptides, Hirunipins: Real‐Time 3D Monitoring of Antimicrobial and Antibiofilm Mechanisms Using Optical Diffraction Tomography” (Advanced Science, 2025).
Converted amounts (≈) assume the structure as drawn. Where two headings read alike, the source gives them in different places. No end group written: not given here.

How the values were obtained:
[1] = system: Escherichia coli [KCTC 1682]; assay type: cell-based
Description: (§1) The MICs of the peptides were measured by the Clinical and Laboratory Standards Institute (CLSI) broth microdilution method, as outlined in a previous study.^[ [26], [27] ^]
(§2) Minimal Inhibitory Concentrations (MICs): Bacteria were grown to mid-logarithmic phase and diluted in Mueller-Hinton broth (MHB) (Difco). The bacterial suspension (1×10^6 CFU/well) was added to a 96-well microtiter plate along with a two-fold serial dilution of samples. The plate was incubated at 37 °C for 24 hours and the bacterial growth inhibition was assessed by measuring the optical density using an ELISA plate reader. The minimum inhibitory concentration (MIC) was defined as the lowest concentration of samples that prevented visible bacterial growth.

[2] = system: Pseudomonas aeruginosa [KCTC 1637]; assay type: cell-based
Description: as §1, §2

[3] = system: Staphylococcus aureus [KCTC1621]; assay type: cell-based
Description: as §1, §2

[4] = system: Staphylococcus epidermidis [KCTC 1917]; assay type: cell-based
Description: as §1, §2

MDRE (328-84) = assay type: cell-based, Enterobacter cloacae
Description: as §1
(§3) Microbial Strains and Cell Lines: Multiple bacterial strains were used in this study. Standard stains included Escherichia coli (KCTC 1682), Pseudomonas aeruginosa (KCTC 1637), Staphylococcus aureus (KCTC1621) and Staphylococcus epidermidis (KCTC 1917) supplied from the Korean Collection for Type Cultures (KCTC) of the Korea Research Institute of Bioscience and Biotechnology (KRIBB). Clinically isolated multidrug-resistant bacteria included multidrug-resistant Klebsiella pneumonia (MDRKP 328-83), multidrug-resistant Acinetobacter baumannii (MDRAB 329-53), multidrug-resistant Pseudomonas aeruginosa (MDRPA 314-69), multidrug-resistant Enterobacter cloacae (MDRE 328-84) and multidrug-resistant Escherichia coli (MDREC 329-66) provided from Hospital of Chosun University, Korea. All bacterial strains were stored in 20% glycerol at −80 °C. For the subsequent experiments, the bacteria were recovered and cultured in the corresponding enrichment broth at 37 °C. The mouse macrophage RAW264.7, mouse fibroblast NIH-3T3 and human keratinocyte HaCat cells were cultured in Dulbecco’s modified Eagle’s medium (DMEM), supplemented with 10% (v/v) of fetal bovine serum (Sigma-Aldrich), 100 U/mL of penicillin and 0.1 mg/mL of streptomycin, at 37 °C in the presence of 5% CO2
as §2

E. coli (KCTC 1682) [5] = test: PI influx assay by flow cytometry; assay type: cell-based, Escherichia coli; settings: 16 µg mL^−1, 60 min, 37 °C, PI 10 µg/mL, untreated 6.9%
Description: (§4) Damage to membrane integrity induced by the peptides was evaluated by flow cytometry of E. coli (KCTC 1682) and S. aureus (KCTC 1621) cells stained with the membrane‐impermeable dye PI, as previously described.^[ [26], [27] ^]
(§5) Flow Cytometry Analysis: E. coli (KCTC 1682) and S. aureus (KCTC 1621) were cultured in LB broth until they reached mid-log-phase, then washed and resuspended in PBS to a density of 2 × 10^5 CFU/mL. The bacterial suspension was incubated with the samples and 10 µg/mL of propidium iodide (PI), a fluorescent dye, at 37 °C for 1 hour in the dark. The samples were then centrifuged and washed twice in PBS to remove any excess dye. The fluorescence of PI, which indicates membrane damage, was measured by FACS flow cytometer (Agilent, ACEA Bioscience Inc.) using a laser excitation wavelength of 488 nm.

S. aureus (KCTC 1621) [6] = test: PI influx assay by flow cytometry; assay type: cell-based, Staphylococcus aureus; settings: 16 µg mL^−1, 60 min, 37 °C, PI 10 µg/mL, untreated 9.5%
Description: as §4, §5

E. coli (KCTC 1682) [7] = test: Multipassage drug resistance study; assay type: cell-based, Escherichia coli; settings: continuous exposure at sub-MIC (0.5×MIC)
Description: The MICs of hirunipin 2 and antibiotics were determined, and the concentration of each sub‐MIC (0.5×MIC) of E. coli (KCTC 1682) was diluted to 1 × 10^6 CFU mL^−1 with MHB for the next passaged MIC determination. This procedure was repeated fifteen times. Ciprofloxacin and tetracycline were used as the controls.

MDRAB (329-53) [8] = system: MDRAB (329-53)
Description: Synergy testing by checkerboard assay: Briefly, each 96-well microtiter plate was inoculated with two-fold serial dilutions of two antibiotics, ranging from 1/8 MIC to 2 MIC, such that one antibiotic was inoculated in the columns and the other in the rows. Then, MDRAB (329-53) cells were inoculated at a concentration of 1× 10^6 CFU/mL. The plates were incubated overnight under static conditions and observed visually.

S. aureus (KCTC 1621) [9] = test: Membrane depolarization assay (diSC3-5); assay type: cell-based, Staphylococcus aureus; settings: diSC3-5 fluorescence, monitored 500 s
Description: The FL dye diSC3‐5 (3,3′‐dipropylthiadicarbocyanine iodide) was utilized to assess the depolarizing impact of peptides on the cytoplasmic membrane of S. aureus (KCTC 1621), following a previously established method.^[ [26], [27] ^]
Membrane Depolarization Assay: Briefly, mid-log phase S. aureus (KCTC 1621) was harvested and washed three times with 5 mM HEPES buffer (pH 7.4, containing 20 mM glucose), and resuspended to an OD600 of 0.05 in the same buffer. The cell suspension was incubated with 0.4 μM diSC3-5 for 90 min such that most of the dye molecules gathered at the cytoplasmic membrane. To equilibrate the cytoplasmic and external K^+ concentrations, KCl was added to the cell suspension containing diSC3-5 to obtain a final concentration of 100 mM, followed by incubating the cells at room temperature for 15−30 min, with peptide aliquots added to 2 mL of suspension. The fluorescence was recorded using a model RF-5301 PC fluorescence spectrophotometer (Shimadzu) at an excitation wavelength of 622 nm and an emission wavelength of 670 nm.

E. coli (KCTC 1682) [10] = assay type: cell-based, Escherichia coli; settings: KCTC 1682, 24 h
Description: as §2, with “The salt sensitivity of the peptides was also analyzed. […] The MIC values in the physiological environment were determined as described above, and data were acquired from three independent assays performed in triplicate. Minimal” for “Minimal”

S. aureus (KCTC1621) = assay type: cell-based, Staphylococcus aureus; settings: KCTC1621, 24 h
Description: as §2, with “The salt sensitivity of the peptides was also analyzed. […] The MIC values in the physiological environment were determined as described above, and data were acquired from three independent assays performed in triplicate. Minimal” for “Minimal”

MDRKP (328-83) = assay type: cell-based, Klebsiella pneumonia; settings: 24 h
Description: as §1, §3, §2

MDRAB (329-53) [11] = assay type: cell-based, Acinetobacter baumannii; settings: 24 h
Description: as §1, §3, §2

MDRPA (314-69) = assay type: cell-based, Pseudomonas aeruginosa; settings: 24 h
Description: as §1, §3, §2

MDREC (329-66) = assay type: cell-based, Escherichia coli; settings: 24 h
Description: as §1, §3, §2

[12] = CLSI broth microdilution in MHB, 1×10^6 CFU/well, 37 °C, 24 h, optical density
[13] = antibiotic in combination with hirunipin 2
[14] = in combination with hirunipin 2

CC[C@H](C)[C@H](NC(=O)CN)C(=O)NCC(=O)N[C@@H](C)C(=O)N[C@H](C(=O)N[C@@H](CC(C)C)C(=O)N[C@@H](CCCCN)C(=O)N[C@H](C(=O)N[C@@H](CC(C)C)C(=O)N[C@H](C(=O)N[C@H](C(=O)NCC(=O)N[C@@H](CC(C)C)C(=O)N1CCC[C@H]1C(=O)N[C@@H](C)C(=O)N[C@@H](CC(C)C)C(=O)N[C@H](C(=O)N[C@@H](CO)C(=O)N[C@@H](Cc1c[nH]c2ccccc12)C(=O)N[C@H](C(=O)N[C@@H](CCCCN)C(=O)N[C@@H](CCCNC(=N)N)C(=O)N[C@@H](CCCCN)C(=O)N[C@@H](CCCNC(=N)N)C(=O)N[C@@H](CCC(N)=O)C(=O)N[C@@H](CCC(N)=O)C(N)=O)[C@@H](C)CC)[C@@H](C)CC)[C@@H](C)O)[C@@H](C)O)C(C)C)C(C)C [Melittin, reference compound]
Minimum inhibitory concentration (MIC), Escherichia coli [KCTC 1682] [1, 12]: 32 µg/mL (≈ 11.2 µM) | Minimum inhibitory concentration (MIC), Pseudomonas aeruginosa [KCTC 1637] [2, 12]: 32 µg/mL (≈ 11.2 µM) | Minimum inhibitory concentration (MIC), Staphylococcus aureus [KCTC1621] [3, 12]: 16 µg/mL (≈ 5.62 µM) | Minimum inhibitory concentration (MIC), Staphylococcus epidermidis [KCTC 1917] [4, 12]: 32 µg/mL (≈ 11.2 µM) | Minimum inhibitory concentrations, MDRE (328-84) (MDRE (328-84); clinically isolated multidrug-resistant Enterobacter cloacae, broth microdilution): 64 µg/mL (≈ 22.5 µM) | percentage of PI-positive cells, E. coli (KCTC 1682) (E. coli (KCTC 1682) [5]): 91.6% | percentage of PI-positive cells, S. aureus (KCTC 1621) (S. aureus (KCTC 1621) [6]): 99.5%

CN(C)[C@@H]1C(O)=C(C(N)=O)C(=O)[C@@]2(O)C(O)=C3C(=O)c4c(O)cccc4[C@@](C)(O)[C@H]3C[C@@H]12 [TET, Tetracycline]
fold-change in the MICs after 15 passages (E. coli (KCTC 1682) [7]): 32 fold | FICI: fractional inhibitory concentration index, FICA + FICB (MDRAB (329-53) [8]; [13]): 0.25 | Interpretation of FICI (MDRAB (329-53) [8]; [13]): synergy (FICI ≤ 0.5 was interpreted as synergy) | MICA: MIC of antibiotic alone (MDRAB (329-53) [8]; checkerboard, MDRAB, 1×10^6 CFU/mL): 16 µg/mL | FICA: fractional inhibitory concentration of antibiotic ([A] / MICA) (MDRAB (329-53) [8]; [14]): 0.125 | [A]: MIC of antibiotic in combination (MDRAB (329-53) [8]; [14]): 2 µg/mL

Buforin‐2 [Buforin-2]
effect on membrane potential (in words) (S. aureus (KCTC 1621) [9]): did not affect membrane potential | percentage of PI-positive cells, E. coli (KCTC 1682) (E. coli (KCTC 1682) [5]): 7.6% | percentage of PI-positive cells, S. aureus (KCTC 1621) (S. aureus (KCTC 1621) [6]): 9.6%

MKSINLKKVVKSIIKKILNSSF-NH2 [Hirunipin 2]
Minimum inhibitory concentration (MIC), Escherichia coli [KCTC 1682] ([1]; KCTC 1682, 24 h): 32 µg/mL | Minimum inhibitory concentration (MIC), Pseudomonas aeruginosa [KCTC 1637] ([2]; KCTC 1637, 24 h): 32 µg/mL | Minimum inhibitory concentration (MIC), Staphylococcus aureus [KCTC1621] ([3]; KCTC1621, 24 h): 32 µg/mL | Minimum inhibitory concentration (MIC), Staphylococcus epidermidis [KCTC 1917] ([4]; KCTC 1917, 24 h): 32 µg/mL | MIC against E. coli (KCTC 1682), 4 µM FeCl3 (E. coli (KCTC 1682) [10]): 8 µg/mL | MIC against E. coli (KCTC 1682), 6 µM NH4Cl (E. coli (KCTC 1682) [10]): 8 µg/mL | MIC against E. coli (KCTC 1682), 1 mM MgCl2 (E. coli (KCTC 1682) [10]): 32 µg/mL | MIC against E. coli (KCTC 1682), 2.5 mM CaCl2 (E. coli (KCTC 1682) [10]): 8 µg/mL | MIC against E. coli (KCTC 1682), 4.5 mM KCl (E. coli (KCTC 1682) [10]): 8 µg/mL | MIC against E. coli (KCTC 1682), 150 mM NaCl (E. coli (KCTC 1682) [10]): 16 µg/mL | MIC against E. coli (KCTC 1682), 25% Human serum (E. coli (KCTC 1682) [10]): 64 µg/mL | MIC against E. coli (KCTC 1682), Control (E. coli (KCTC 1682) [10]): 32 µg/mL | MIC against S. aureus (KCTC1621), 4 µM FeCl3 (S. aureus (KCTC1621)): 32 µg/mL | MIC against S. aureus (KCTC1621), 6 µM NH4Cl (S. aureus (KCTC1621)): 16 µg/mL | MIC against S. aureus (KCTC1621), 1 mM MgCl2 (S. aureus (KCTC1621)): 32 µg/mL | MIC against S. aureus (KCTC1621), 2.5 mM CaCl2 (S. aureus (KCTC1621)): 32 µg/mL | MIC against S. aureus (KCTC1621), 4.5 mM KCl (S. aureus (KCTC1621)): 32 µg/mL | MIC against S. aureus (KCTC1621), 150 mM NaCl (S. aureus (KCTC1621)): 32 µg/mL | MIC against S. aureus (KCTC1621), 25% Human serum (S. aureus (KCTC1621)): 64 µg/mL | MIC against S. aureus (KCTC1621), Control (S. aureus (KCTC1621)): 32 µg/mL | Minimum inhibitory concentrations, MDRKP (328-83) (MDRKP (328-83)): 128 µg/mL | Minimum inhibitory concentrations, MDRAB (329-53) (MDRAB (329-53) [11]): 64 µg/mL | Minimum inhibitory concentrations, MDRPA (314-69) (MDRPA (314-69)): 16 µg/mL | Minimum inhibitory concentrations, MDRE (328-84) (MDRE (328-84); 24 h): 32 µg/mL | Minimum inhibitory concentrations, MDREC (329-66) (MDREC (329-66)): 16 µg/mL | MICB: MIC of hirunipin 2 alone (MDRAB (329-53) [8]): 64 µg/mL
